Reference: ChEMBL document CHEMBL1201862, “PubChem BioAssay data set” (2004)
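Cultured in 96-well plates, cells were exposed to test compound for 48 hours across five concentrations. GI50 is the concentration that inhibits growth by half.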 Activity calls are given as the source filed them. No stated cut-off is given here; in the data, active = GI50 up to about 1.1 µM and inactive = higher.

Assays:
Assay in all cases: NCI-60 cell line screen, 48 h
ACHN = test system: ACHN
BT-549 = test system: BT-549
HL-60 = test system: HL-60
HOP-92 = test system: HOP-92
K562 = test system: K562
MDA-MB-231 = test system: MDA-MB-231
MDA-MB-435 = test system: MDA-MB-435
NCI-H226 = test system: NCI-H226
NCI-H23 = test system: NCI-H23
OVCAR-8 = test system: OVCAR-8
RXF 393 = test system: RXF 393
SF-268 = test system: SF-268
SF-539 = test system: SF-539
SNB-19 = test system: SNB-19
SNB-75 = test system: SNB-75
SR = test system: SR
T47D = test system: T47D
TK-10 = test system: TK-10
UACC-257 = test system: UACC-257
A498 = test system: A498

SMILES | GI50 (ACHN) | GI50 (BT-549) | GI50 (HL-60) | GI50 (HOP-92) | GI50 (K562) | GI50 (MDA-MB-231) | GI50 (MDA-MB-435) | GI50 (NCI-H226) | GI50 (NCI-H23) | GI50 (OVCAR-8) | GI50 (RXF 393) | GI50 (SF-268) | GI50 (SF-539) | GI50 (SNB-19) | GI50 (SNB-75) | GI50 (SR) | GI50 (T47D) | GI50 (TK-10) | GI50 (UACC-257) | GI50 (A498)
COc1cc2c(cc1O)CCN[C@@]21CS[C@H]2c3c(OC(C)=O)c(C)c4c(c3C(COC1=O)N1C2C2c3c(cc(C)c(OC)c3O)CC([C@@H]1O)N2C)OCO4 (some centres undefined) | < 0.0001 µM (active) | 0.00181 µM (active) | < 0.0001 µM (active) | < 0.0001 µM (active) | 0.000324 µM (active) | < 0.0001 µM (active) | < 0.0001 µM (active) | < 0.0001 µM (active) | < 0.0001 µM (active) | < 0.0001 µM (active) | < 0.0001 µM (active) | < 0.0001 µM (active) | < 0.0001 µM (active) | < 0.0001 µM (active) | 0.00131 µM (active) | < 1e-06 µM (active) | 0.00296 µM (active) | < 0.0001 µM (active) | < 0.0001 µM (active) | 
Cc1c(C(=O)O)c2cc3ccccc3cc2c(=O)n1C | > 10 µM (inactive) | > 10 µM (inactive) | > 10 µM (inactive) | > 10 µM (inactive) |  | > 10 µM (inactive) | > 10 µM (inactive) | > 10 µM (inactive) | > 10 µM (inactive) | > 10 µM (inactive) | > 10 µM (inactive) | > 10 µM (inactive) | > 10 µM (inactive) | > 10 µM (inactive) | > 10 µM (inactive) | > 10 µM (inactive) | > 10 µM (inactive) | > 10 µM (inactive) | > 10 µM (inactive) | 
CC(=O)Oc1c2c(c3n(c1=O)CCCC3)C(=O)N(c1ccccc1)C2=O | 51.4 µM (inactive) | 38.2 µM (inactive) | > 100 µM (inactive) | 40.7 µM (inactive) | > 100 µM (inactive) | > 100 µM (inactive) | 46.9 µM (inactive) | 60 µM (inactive) | > 100 µM (inactive) | > 100 µM (inactive) | > 100 µM (inactive) | > 100 µM (inactive) | > 100 µM (inactive) | > 100 µM (inactive) | 87.5 µM (inactive) | > 100 µM (inactive) | 87.5 µM (inactive) | 94.6 µM (inactive) |  | 
CC1(C)[N+]([O-])=[N+]([O-])C1(C)O (centres undefined) |  | > 100 µM (inactive) | > 100 µM (inactive) |  | > 100 µM (inactive) | > 100 µM (inactive) | > 100 µM (inactive) | > 100 µM (inactive) | > 100 µM (inactive) | > 100 µM (inactive) | > 100 µM (inactive) | > 100 µM (inactive) | > 100 µM (inactive) | > 100 µM (inactive) | > 100 µM (inactive) | > 100 µM (inactive) | > 100 µM (inactive) | > 100 µM (inactive) | > 100 µM (inactive) | > 100 µM (inactive)
CN(C)Cc1cc(C(=O)/C=C/c2ccc(Cl)cc2)cc(CN(C)C)c1O | 4.04 µM (inactive) | 3.7 µM (inactive) | 2.86 µM (inactive) |  | 5.41 µM (inactive) | 11.4 µM (inactive) | 13.7 µM (inactive) | 22 µM (inactive) | 15.7 µM (inactive) | 7.59 µM (inactive) | 10.9 µM (inactive) | 18.2 µM (inactive) | 19.3 µM (inactive) | 8.75 µM (inactive) | 8.75 µM (inactive) | 11.1 µM (inactive) | 27 µM (inactive) | 18.4 µM (inactive) | 15.6 µM (inactive) | 12.7 µM (inactive)
O=[N+]([O-])c1ccc2c(c1)Cc1cc(/N=C/c3ccc4c(c3)OCO4)ccc1-2 | > 100 µM (inactive) | > 100 µM (inactive) | > 100 µM (inactive) | > 100 µM (inactive) | > 100 µM (inactive) | > 100 µM (inactive) | > 100 µM (inactive) | > 100 µM (inactive) | > 100 µM (inactive) | > 100 µM (inactive) | > 100 µM (inactive) | > 100 µM (inactive) | > 100 µM (inactive) | > 100 µM (inactive) | 89.7 µM (inactive) |  | > 100 µM (inactive) | > 100 µM (inactive) | > 100 µM (inactive) | > 100 µM (inactive)
COC(=O)N/N=C(\c1ccccc1)c1ccc(OC)cc1 |  | > 100 µM (inactive) | > 100 µM (inactive) |  | > 100 µM (inactive) | > 100 µM (inactive) | 76.7 µM (inactive) | > 100 µM (inactive) | > 100 µM (inactive) | > 100 µM (inactive) | > 100 µM (inactive) | > 100 µM (inactive) | > 100 µM (inactive) | > 100 µM (inactive) | 78.7 µM (inactive) | > 100 µM (inactive) | > 100 µM (inactive) | > 100 µM (inactive) | > 100 µM (inactive) | > 100 µM (inactive)
